According to article PMC8504695, “Structure-Based Virtual Screening and Identification of Potential Inhibitors of SARS-CoV-2 S-RBD and ACE2 Interaction” (Frontiers in Chemistry, 2021):

How the values were obtained:
NanoLuc luciferase = NanoLuc luciferase (Oplophorus gracilirostris, UniProt Q9GV45, A31E/A60N/A81I/F95D/I117V/K70R/L54V/L99Q/M102K/N193R/P142E/Q151K/Q38R/Q45L/V71I/Y165I); test: cell-based; conditions: read-out: IC50 NanoLuc (inhibition of NanoLuc luciferase)
[1] = tested on: ACE2-expressing HEK293T cells; conditions: concentration required to retain cell viability by 90%
HEK293 cells = conditions: human
[2] = target: SARS-CoV-2 S-RBD/ACE2 interaction (UniProt P0DTC2+Q9BYF1); test: cell-based; set-up: species or system SARS-CoV-2 / human; conditions: for IC50: HEK293 cells, 3 h incubation, n = 3, read-out: IC50 NanoBiT (inhibition of SARS-CoV-2 S-RBD/ACE2 interaction); for inhibition at 20 µM / inhibition at 50 µM: HEK293
human ACE2 = human ACE2 (Homo sapiens, UniProt Q9BYF1); test: SPR binding assay, immobilized ACE2 (BIAcore T200); conditions: for Kd: immobilized ACE2, PBS pH 7.4, 25°C; for Binding to human ACE2 by SPR (in words): up to 100,000 nM analyte
Method: A BIAcore T200 instrument (GE Healthcare Life Sciences, United States) was used to evaluate the binding affinity of the test compounds to human ACE2 or SARS-CoV-2 S-RBD as previously described ([Li et al., 2017]). Briefly, both proteins were respectively immobilized on the different channels of CM5 sensor chip by a standard amine-coupling approach at a flow rate of 10 μL/min in 10 mM sodium acetate buffer (pH 4.0). The sensor surface was activated with a 7 min injection of the mixture of 50 mM N-hydroxysuccinimide (NHS) and 200 mM 1-ethyl-3-(3-dimethylaminopropyl) carbodiimide (EDC). Then 10 μg/ml of human ACE2 or 50 μg/ml of SARS-CoV-2 S-RBD was injected for 420 s and the surface was blocked with 1 M ethanolamine, pH 8.5. Series concentrations of the test compounds were injected into the flow system at a flow rate of 30 μL/min for 90 s, and the dissociation was 120 s. All binding analysis was performed in phosphate buffered saline (PBS) with 0.05% (v/v) Tween-20 and 1% DMSO (pH 7.4) at 25°C. Prior to analysis, double reference subtractions and solvent corrections were made to eliminate bulk refractive index changes, injection noise, and data drift. The binding affinity was determined by fitting to a Langmuir 1:1 binding model within the BIAcore Evaluation software (GE Healthcare Life Sciences, United States).

in vitro = conditions: human
SARS-CoV-2 S-RBD = SARS-CoV-2 S-RBD (Severe acute respiratory syndrome coronavirus 2, UniProt P0DTC2); test: SPR binding assay, immobilized S-RBD (BIAcore T200); conditions: for Kd: immobilized S-RBD, PBS pH 7.4, 25°C; for Binding to SARS-CoV-2 S-RBD by SPR (in words): up to 100,000 nM analyte
SARS-CoV-2-S pseudovirus = test: microbe, parasite or virus in culture; assay type: cell-based; conditions: for IC50: Pseudovirus, HEK-293T, read-out: IC50 of Anti-SARS-CoV-2-S pseudovirus; for %I, SARS-CoV-2-S pseudovirus inhibition ratio at MNCC: fitted from the inhibition curve
SARS-CoV-2 pseudovirus = conditions: cited from earlier work

NanoLuc luciferase, sequence (Q9GV45 other isoform, or with tags, fused parts or gaps with the stated changes): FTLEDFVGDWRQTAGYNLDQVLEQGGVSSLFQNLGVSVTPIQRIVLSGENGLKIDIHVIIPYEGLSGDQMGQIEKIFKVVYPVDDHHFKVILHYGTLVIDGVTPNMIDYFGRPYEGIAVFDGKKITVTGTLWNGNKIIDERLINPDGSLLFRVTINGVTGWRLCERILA
human ACE2, sequence (Q9BYF1 18-805): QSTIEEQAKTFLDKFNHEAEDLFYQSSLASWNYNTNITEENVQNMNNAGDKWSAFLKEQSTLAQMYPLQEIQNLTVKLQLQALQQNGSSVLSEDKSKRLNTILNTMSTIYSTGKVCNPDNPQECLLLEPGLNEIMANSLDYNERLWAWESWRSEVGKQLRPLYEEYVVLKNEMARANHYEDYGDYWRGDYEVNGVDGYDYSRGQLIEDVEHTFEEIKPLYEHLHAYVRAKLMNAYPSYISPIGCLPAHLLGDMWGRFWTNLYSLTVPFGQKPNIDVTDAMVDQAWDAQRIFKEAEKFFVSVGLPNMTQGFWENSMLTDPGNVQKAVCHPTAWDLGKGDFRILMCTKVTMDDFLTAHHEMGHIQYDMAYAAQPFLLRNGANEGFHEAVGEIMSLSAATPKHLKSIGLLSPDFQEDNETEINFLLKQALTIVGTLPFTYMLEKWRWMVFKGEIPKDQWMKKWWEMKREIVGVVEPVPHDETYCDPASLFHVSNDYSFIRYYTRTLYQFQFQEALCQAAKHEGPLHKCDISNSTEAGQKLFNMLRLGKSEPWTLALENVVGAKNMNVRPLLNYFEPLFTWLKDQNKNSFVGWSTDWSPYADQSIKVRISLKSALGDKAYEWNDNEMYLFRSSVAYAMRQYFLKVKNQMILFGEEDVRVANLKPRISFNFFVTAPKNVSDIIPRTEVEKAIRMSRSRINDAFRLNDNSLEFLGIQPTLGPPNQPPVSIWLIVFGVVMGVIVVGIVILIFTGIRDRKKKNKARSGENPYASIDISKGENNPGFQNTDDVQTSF
SARS-CoV-2 S-RBD/ACE2 interaction, sequence (Q9BYF1 19-615 limits assumed, other chains not shown): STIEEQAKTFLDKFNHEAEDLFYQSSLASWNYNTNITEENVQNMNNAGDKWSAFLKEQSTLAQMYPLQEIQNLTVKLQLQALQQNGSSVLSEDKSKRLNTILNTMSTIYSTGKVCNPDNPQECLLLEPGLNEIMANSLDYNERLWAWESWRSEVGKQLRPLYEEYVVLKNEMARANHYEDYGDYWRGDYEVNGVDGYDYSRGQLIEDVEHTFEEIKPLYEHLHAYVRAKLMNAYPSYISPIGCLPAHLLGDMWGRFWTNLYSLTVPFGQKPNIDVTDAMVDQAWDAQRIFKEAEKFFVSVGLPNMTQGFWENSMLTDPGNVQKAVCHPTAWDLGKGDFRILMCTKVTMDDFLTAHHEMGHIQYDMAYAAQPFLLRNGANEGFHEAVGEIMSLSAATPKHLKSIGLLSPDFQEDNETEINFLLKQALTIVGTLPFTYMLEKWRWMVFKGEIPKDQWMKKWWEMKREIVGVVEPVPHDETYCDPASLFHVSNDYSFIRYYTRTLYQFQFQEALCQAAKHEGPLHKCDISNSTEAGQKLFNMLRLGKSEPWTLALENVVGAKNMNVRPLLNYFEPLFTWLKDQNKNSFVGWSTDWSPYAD

## CCOc1ccc(N(CC(=O)Nc2ccccc2C(=O)NCc2ccco2)S(=O)(=O)c2ccc(OC)c(OC)c2)cc1 [DC-RA106]
NanoLuc luciferase
  IC50: > 100 µM
[1]
  MNCC, maximum non-cytotoxic concentration: 13.24 µM
HEK293 cells
  CC50 / IC50 Cytotox (HEK293 cell proliferation): > 100.00 µM
[2]
  IC50: 24.7 µM
Human ACE2
  Kd: > 100 µM
  Binding to human ACE2 by SPR (in words): could bind
In vitro
  CC50: > 100 µM
SARS-CoV-2 S-RBD
  Kd: > 100 µM
  Binding to SARS-CoV-2 S-RBD by SPR (in words): showed binding
SARS-CoV-2-S pseudovirus
  SI, selectivity index: >1.41
  IC50: 70.8 µM
  %I, SARS-CoV-2-S pseudovirus inhibition ratio at MNCC: 0.14%

## O=C(N/N=C/c1cc([N+](=O)[O-])ccc1Cl)c1ccc(O)cc1O [DC-RA016-6]
[2]
  inhibition at 20 µM: 1.9%
  inhibition at 50 µM: 2.9%

## O=C(N/N=C/c1cc([N+](=O)[O-])ccc1Cl)c1cccc([N+](=O)[O-])c1 [DC-RA016-3]
[2]
  inhibition at 20 µM: 1.7%
  inhibition at 50 µM: 24.2%

## Cc1ccccc1C(=O)N/N=C/c1cc([N+](=O)[O-])ccc1Cl [DC-RA016-4]
[2]
  inhibition at 20 µM: -3.8%
  inhibition at 50 µM: -24.9%

## O=C(N/N=C/c1ccc(Cl)c([N+](=O)[O-])c1)c1cc(O)cc(O)c1 [DC-RA016-12]
[2]
  inhibition at 20 µM: 61.3%
  inhibition at 50 µM: 88.9%
  IC50: 26.1 µM

## O=C(N/N=C/c1cc([N+](=O)[O-])ccc1Cl)c1cc(O)cc(O)c1 [DC-RA016]
NanoLuc luciferase
  IC50: > 100 µM
[1]
  MNCC, maximum non-cytotoxic concentration: 95.81 µM
HEK293 cells
  CC50 / IC50 Cytotox (HEK293 cell proliferation): > 100.00 µM
[2]
  inhibition at 20 µM: 73.1%
  inhibition at 50 µM: 73.1%
  IC50: 26.6 µM
Human ACE2
  Kd: 147 µM
  Binding to human ACE2 by SPR (in words): could bind
In vitro
  CC50: > 100 µM
SARS-CoV-2 S-RBD
  Kd: 85.1 µM
  Binding to SARS-CoV-2 S-RBD by SPR (in words): showed binding
SARS-CoV-2-S pseudovirus
  SI, selectivity index: >4.46
  IC50: 22.4 µM
  %I, SARS-CoV-2-S pseudovirus inhibition ratio at MNCC: 52.08%

## Cc1cccc(/C=N/NC(=O)c2cc(O)cc(O)c2)c1 [DC-RA016-11]
[2]
  inhibition at 20 µM: 4.8%
  inhibition at 50 µM: 12.7%

## O=C(N/N=C/c1cc([N+](=O)[O-])ccc1Cl)c1ccccc1O [DC-RA016-5]
[2]
  inhibition at 20 µM: 8.7%
  inhibition at 50 µM: 24.9%

## O=C(N/N=C/c1cc([N+](=O)[O-])ccc1Cl)c1ccccc1I [DC-RA016-2]
[2]
  inhibition at 20 µM: 0.8%
  inhibition at 50 µM: 22.5%

## COc1cc(-c2nc3ccccc3s2)ccc1OCC(=O)Nc1ccc(C)cc1 [DC-RA087]
NanoLuc luciferase
  IC50: > 100 µM
[1]
  MNCC, maximum non-cytotoxic concentration: 14.01 µM
HEK293 cells
  CC50 / IC50 Cytotox (HEK293 cell proliferation): > 100.00 µM
[2]
  IC50: 86.2 µM
Human ACE2; immobilized ACE2
  kd to ACE2 (SPR): 0.3217 s⁻¹
Human ACE2; pH 7.4, immobilized ACE2, read-out: ka to ACE2 (SPR)
  kon: 56.4 M⁻¹ s⁻¹
Human ACE2
  Binding to human ACE2 by SPR (in words): could bind
In vitro
  CC50: > 100 µM
SARS-CoV-2 S-RBD
  Binding to SARS-CoV-2 S-RBD by SPR (in words): No binding
SARS-CoV-2-S pseudovirus
  SI, selectivity index: >4.75
  IC50: 21.1 µM
  %I, SARS-CoV-2-S pseudovirus inhibition ratio at MNCC: 36.74%

## O=C(N/N=C/c1cc([N+](=O)[O-])ccc1Cl)c1cccc(Br)c1 [DC-RA016-1]
[2]
  inhibition at 20 µM: 3.1%
  inhibition at 50 µM: 7.4%

## O=C(N/N=C/c1ccccc1O)c1cc(O)cc(O)c1 [DC-RA016-9]
[2]
  inhibition at 20 µM: 0.6%
  inhibition at 50 µM: 88.6%
  IC50: 73.8 µM

## C[C@@]1(C(=O)O)CC[C@]2(C)CC[C@]3(C)C4=CC(=O)c5c(cc(O)c(O)c5C=O)[C@]4(C)CC[C@@]3(C)[C@@H]2C1 [demethylzeylasteral]
SARS-CoV-2 pseudovirus; under nontoxic concentration, ref Zhu et al., 2021
  Inhibitory activity against SARS-CoV-2 pseudovirus: approximately 7%

## Cc1ccccc1/C=N/NC(=O)c1cc(O)cc(O)c1 [DC-RA016-10]
[2]
  inhibition at 20 µM: -6.5%
  inhibition at 50 µM: -17.7%

## COc1ccc(C(=O)C[C@]2(O)C(=O)N(CCOc3ccccc3OC)c3ccccc32)c(OC)c1 [DC-RA076]
NanoLuc luciferase
  IC50: > 100 µM
[1]
  MNCC, maximum non-cytotoxic concentration: 2.64 µM
HEK293 cells
  CC50 / IC50 Cytotox (HEK293 cell proliferation): > 100.00 µM
[2]
  IC50: 75.6 µM
Human ACE2
  Binding to human ACE2 by SPR (in words): no binding
In vitro
  CC50: 24.7 µM
SARS-CoV-2 S-RBD
  Binding to SARS-CoV-2 S-RBD by SPR (in words): no binding
SARS-CoV-2-S pseudovirus
  SI, selectivity index: 2.95
  IC50: 8.37 µM
  %I, SARS-CoV-2-S pseudovirus inhibition ratio at MNCC: 5.75%

## O=C(N/N=C/c1cc([N+](=O)[O-])ccc1Cl)c1ccc(O)cc1 [DC-RA016-7]
[2]
  inhibition at 20 µM: 10.6%
  inhibition at 50 µM: 20.2%

## C=Cc1c(C)c2cc3nc(cc4[nH]c(cc5nc(cc1[nH]2)C(C)=C5CCC(=O)O)c(CCC(=O)OC)c4C)[C@@]1(C)C3=CC=C(C(=O)OC)[C@H]1C(=O)OC [Visudyne]
SARS-CoV-2 pseudovirus; cytotoxicity data not reported, ref Fu et al., 2020
  Antiviral activity against SARS-CoV-2 pseudovirus (in words): intense antiviral activity

## O=C(N/N=C/c1cc([N+](=O)[O-])ccc1Cl)c1ccc(O)c(O)c1 [DC-RA016-8]
[2]
  inhibition at 20 µM: 6.7%
  inhibition at 50 µM: -18.3%
